Read-outs that look alike come from different tables or passages of the source.
Legend:
[1] = system: PLC/PRF cells; settings: PLC/PRF, 48 h
Procedure: (§1) The SCGE experiments were conducted as described in an international guideline (Tice et al. [2000]). Reagents for the assays (lysis solution and alkaline electrophoresis buffer) and agarose-coated slides were prepared according to Collins and Dusinska ([2009]).
(§2) Briefly, cells were sub-cultured in 1.0 ml medium in 24–well tissue-culture plates (Sarstedt Inc., Newton, NC, USA). After 24 h, the media were changed and the cells exposed to different concentrations of the test compounds or to the solvent controls (PBS or DMSO). […] To terminate the treatment, the cells were washed twice with PBS (1.0 ml), trypsinized (100 µl T/E per well, 4 min) and then resuspended in 400 µl culture medium containing FBS. Subsequently, the suspensions were transferred to Eppendorf tubes and centrifuged (200g, 5 min). Cell pellets were resuspended in cold PBS.
(§3) In all experiments, acute toxic effects were determined with a CASY® Cell Counter and Analyzer System (Schärfe-System GmbH, Reutlingen, Germany) (Lindl et al. [2005]). SCGE assays were only performed when the viability of the cultures was ≥ 70% (Koppen et al. [2017]). Per experimental point, two cultures were set up in parallel and from each one slide with two separate gels (30,000 cells/gel) was prepared. After unwinding (40 min, pH > 13) and electrophoresis (30 min, 0.75 V/cm, ~ 300 mA, 4 °C, pH > 13), 50 cells were evaluated per gel (200 cells per experimental point). As an endpoint, we determined the tail intensities (“% DNA in tail”) with a computer-aided system Comet Assay IV (Perceptive Instruments, Bury St Edmunds, UK), which is at present the most widely used parameter (Collins et al. [2008]; Moller [2006]). For each gel, the median of the tail intensity was calculated.

[2] = system: HepaRG cells; settings: for Result of SCGE experiments (in words): HepaRG cells; for % DNA in tail: HepaRG, 48 h
Procedure: as §1, §2, §3

[3] = system: HCC 1.2 cells; settings: 48 h
Procedure: as §1, §2, §3

[4] = system: SNU-398 cells; settings: 48 h
Procedure: as §1, §2, §3

[5] = system: WRL68 cells; settings: 48 h
Procedure: as §1, §2, §3

[6] = system: Hep3B cells; settings: Hep3B, 48 h
Procedure: as §1, §2, §3

[7] = system: HepG2 cells; settings: 48 h
Procedure: as §1, §2, §3

[8] = system: SNU-449 cells; settings: 48 h
Procedure: as §1, §2, §3

[9] = system: HuH7 cells; settings: 48 h
Procedure: as §1, §2, §3

[10] = system: HuH6 cells; settings: 48 h
Procedure: as §1, §2, §3

[11] = system: JHH6 cells; settings: 48 h, control 0.59 ± 0.21
Procedure: as §1, §2, §3

[12] = system: SK-Hep1 cells; settings: 48 h
Procedure: as §1, §2, §3

[13] = system: human derived liver cell lines; settings: for Number of the twelve lines sensitive towards the compound: SCGE experiments without exogenous enzyme activation mix
Procedure: as §1, §2, §3

[14] = ref IARC [1993]; cited from earlier work
[15] = system: primary human hepatocytes; settings: ref Wilkening et al. [2003]; cited from earlier work

## Cn1c(N)nc2c3cccnc3ccc21 [IQ, 2-amino-3-methyl-3H-imidazo[4,5-f]quinolone]
[1]; IQ 50.0 µM, control 2.47 ± 2.08
  % DNA in tail: 5.17 ± 4.50%
[1]; IQ 100.0 µM, control 2.47 ± 2.08
  % DNA in tail: 2.84 ± 2.65%
[2]
  Result of SCGE experiments (in words): negative results
[2]; IQ 50.0 µM, control 2.34 ± 2.92
  % DNA in tail: 2.39 ± 4.10%
[2]; IQ 100.0 µM, control 2.34 ± 2.92
  % DNA in tail: 2.38 ± 1.97%
[3]; HCC 1.2, IQ 50.0 µM, control 2.93 ± 1.40
  % DNA in tail: 1.86 ± 0.44%
[3]; HCC 1.2, IQ 100.0 µM, control 2.93 ± 1.40, starred P ≤ 0.05
  % DNA in tail: 7.29 ± 1.87%
[4]; SNU-398, IQ 50.0 µM, control 1.02 ± 0.88
  % DNA in tail: 1.42 ± 0.72%
[4]; SNU-398, IQ 100.0 µM, control 1.02 ± 0.88
  % DNA in tail: 1.20 ± 0.81%
[5]; WRL68, IQ 50.0 µM, control 0.76 ± 0.77
  % DNA in tail: 1.15 ± 1.44%
[5]; WRL68, IQ 100.0 µM, control 0.76 ± 0.77
  % DNA in tail: 0.56 ± 0.67%
[6]; IQ 50.0 µM, control 0.92 ± 0.58
  % DNA in tail: 0.88 ± 0.71%
[6]; IQ 100.0 µM, control 0.92 ± 0.58
  % DNA in tail: 1.75 ± 1.45%
[7]; HepG2, IQ 50.0 µM, control 2.16 ± 0.54
  % DNA in tail: 1.32 ± 0.91%
[7]; HepG2, IQ 100.0 µM, control 2.16 ± 0.54, starred P ≤ 0.05
  % DNA in tail: 5.38 ± 2.02%
[8]; SNU-449, IQ 50.0 µM, control 1.20 ± 1.18
  % DNA in tail: 3.67 ± 2.95%
[8]; SNU-449, IQ 100.0 µM, control 1.20 ± 1.18
  % DNA in tail: 1.46 ± 1.21%
[9]; HuH7, IQ 50.0 µM, control 1.29 ± 1.30
  % DNA in tail: 2.16 ± 0.91%
[9]; HuH7, IQ 100.0 µM, control 1.29 ± 1.30
  % DNA in tail: 1.11 ± 0.60%
[10]; HuH6, IQ 50.0 µM, control 4.01 ± 1.68
  % DNA in tail: 5.91 ± 3.05%
[10]; HuH6, IQ 100.0 µM, control 4.01 ± 1.68, starred P ≤ 0.05
  % DNA in tail: 10.82 ± 5.71%
[11]; JHH6, IQ 50.0 µM
  % DNA in tail: 1.29 ± 1.55%
[11]; JHH6, IQ 100.0 µM
  % DNA in tail: 0.93 ± 0.67%
[12]; SK-Hep1, IQ 50.0 µM, control 0.59 ± 0.24
  % DNA in tail: 0.62 ± 0.47%
[12]; SK-Hep1, IQ 100.0 µM, control 0.59 ± 0.24
  % DNA in tail: 1.43 ± 0.95%
[13]
  Number of the twelve lines sensitive towards the compound: three
[13]; different hepatic lines, in most cases
  Doses required to cause significant effects in SCGE assays: ≥ 100 mM
[14]
  IARC classification: Causes guanine adducts, clear evidence for carcinogenicity in experiments with rodents IARC: Group 2A

## Cn1c(N)nc2ncc(-c3ccccc3)cc21 [PhIP, 2-amino-1-methyl-6-phenylimidazo[4,5-b]pyridine]
[1]; PhIP 50.0 µM, control 3.82 ± 1.22
  % DNA in tail: 2.51 ± 0.56%
[1]; PhIP 100.0 µM, control 3.82 ± 1.22
  % DNA in tail: 4.00 ± 3.72%
[1]; PhIP 300.0 µM, control 3.82 ± 1.22
  % DNA in tail: 2.43 ± 2.03%
[2]
  Result of SCGE experiments (in words): detected
[2]; PhIP 50.0 µM, control 0.53 ± 0.66, starred P ≤ 0.05
  % DNA in tail: 4.82 ± 3.57%
[2]; PhIP 100.0 µM, control 0.53 ± 0.66
  % DNA in tail: 2.86 ± 1.73%
[3]; HCC 1.2, PhIP 50.0 µM, control 6.61 ± 2.14, starred P ≤ 0.05
  % DNA in tail: 17.5 ± 4.84%
[3]; HCC 1.2, PhIP 100.0 µM, control 6.61 ± 2.14, starred P ≤ 0.05
  % DNA in tail: 15.1 ± 2.32%
[3]; HCC 1.2, PhIP 300.0 µM, control 6.61 ± 2.14, starred P ≤ 0.05
  % DNA in tail: 14.8 ± 2.63%
[4]; SNU-398, PhIP 50.0 µM, control 5.60 ± 3.26
  % DNA in tail: 2.92 ± 1.18%
[4]; SNU-398, PhIP 100.0 µM, control 5.60 ± 3.26
  % DNA in tail: 7.04 ± 5.97%
[4]; SNU-398, PhIP 300.0 µM, control 5.60 ± 3.26
  % DNA in tail: 10.3 ± 1.06%
[5]; WRL68, PhIP 50.0 µM, control 2.89 ± 1.16
  % DNA in tail: 5.17 ± 3.21%
[5]; WRL68, PhIP 100.0 µM, control 2.89 ± 1.16
  % DNA in tail: 3.77 ± 1.36%
[5]; WRL68, PhIP 300.0 µM, control 2.89 ± 1.16
  % DNA in tail: 3.39 ± 3.35%
[6]; PhIP 50.0 µM, control 1.56 ± 0.18
  % DNA in tail: 1.43 ± 0.24%
[6]; PhIP 100.0 µM, control 1.56 ± 0.18
  % DNA in tail: 0.82 ± 0.53%
[7]; HepG2, PhIP 50.0 µM, control 2.90 ± 1.03, starred P ≤ 0.05
  % DNA in tail: 6.92 ± 2.00%
[7]; HepG2, PhIP 100.0 µM, control 2.90 ± 1.03, starred P ≤ 0.05
  % DNA in tail: 6.78 ± 1.37%
[8]; SNU-449, PhIP 50.0 µM, control 2.12 ± 0.59
  % DNA in tail: 2.02 ± 0.81%
[8]; SNU-449, PhIP 100.0 µM, control 2.12 ± 0.59
  % DNA in tail: 3.06 ± 1.08%
[8]; SNU-449, PhIP 300.0 µM, control 2.12 ± 0.59
  % DNA in tail: 1.17 ± 0.83%
[9]; HuH7, PhIP 50.0 µM, control 5.12 ± 1.05
  % DNA in tail: 5.35 ± 2.84%
[9]; HuH7, PhIP 100.0 µM, control 5.12 ± 1.05
  % DNA in tail: 9.21 ± 2.26%
[9]; HuH7, PhIP 300.0 µM, control 5.12 ± 1.05
  % DNA in tail: 3.55 ± 2.08%
[10]; HuH6, PhIP 50.0 µM, control 1.81 ± 1.15, starred P ≤ 0.05
  % DNA in tail: 11.51 ± 3.64%
[10]; HuH6, PhIP 100.0 µM, control 1.81 ± 1.15, starred P ≤ 0.05
  % DNA in tail: 8.67 ± 2.67%
[10]; HuH6, PhIP 300.0 µM, control 1.81 ± 1.15, starred P ≤ 0.05
  % DNA in tail: 24.7 ± 2.15%
[11]; JHH6, PhIP 50.0 µM
  % DNA in tail: 0.93 ± 1.09%
[11]; JHH6, PhIP 100.0 µM
  % DNA in tail: 1.44 ± 0.53%
[12]; SK-Hep1, PhIP 50.0 µM, control 2.84 ± 2.06
  % DNA in tail: 5.18 ± 1.19%
[12]; SK-Hep1, PhIP 100.0 µM, control 2.84 ± 2.06
  % DNA in tail: 5.83 ± 1.06%
[12]; SK-Hep1, PhIP 300.0 µM, control 2.84 ± 2.06
  % DNA in tail: 5.77 ± 4.30%
[13]
  Number of the twelve lines sensitive towards the compound: four
[14]
  IARC classification: Causes guanine adducts that induces tumors at multiple sites in animal models IARC: Group 2B
[15]
  Sensitivity of primary hepatocytes compared with HepG2: substantially stronger effects
